Source: patent US20050239724A1, “Skin penetration enhancing components” (Wyeth, priority 1997, published 2005)

Assays:
[1] = Venous blood sirolimus levels after single topical application (MSGCMS); assay type: in vivo, human; settings: normal skin, 4, 7 and 24 hours
Description: A formulation was formed of 8% sirolimus and 92% of a vehicle of capric acid (50%) with benzyl alcohol (50%). This was tested in single application experiments on four individuals with normal skin.
(§1) A formulation of sirolimus (2.2%) in a vehicle comprising isopropyl myristate 40%, benzyl alcohol 10% and capric acid 50% was tested in single application experiments on three individuals with normal skin. […] After 7 hours biopsy samples were taken from two of the individuals. These were bisected in parallel with the surface to give an upper and lower half, roughly corresponding to the epidermis and dermis. The skin was homogenised with acetonitrile and sirolimus concentration was determined by HPLC.

Ki-67 = experiment: Biopsy immunohistochemistry, Ki-67 proliferating cells in the epidermis; assay type: in vivo, human; settings: lesion biopsy at end of treatment; control mean 83/mm^3; P-0.027 (unpaired T test)
Description: (§2) Assessments were done at weeks 0, 2, 4 and 6 on the low potency treatment and at 8, 10 and 12 on the higher dose formulation, provided there were no signs or laboratory evidence of toxicity. Clinical scoring was done at each attendance and areas traced at the start and finish of treatment. Biopsies from active and control lesions were performed at the end of treatment or at withdrawal. Biopsies were not done if an adverse event such as a reaction to the application occurred as this would influence the measures being assessed.
(§3) In biopsies, epidermal thickness was measured and immunoperoxidase immunohistochemistry done using the following antibodies to count cells in a blinded fashion:
(§4) Thus, antibody Ki-67 was used to give a measure of hyperproliferation in the epidermis and CD4 helper lymphocytes were used to give a measure of auto-immune activity which drives psoriasis.
(§5) Cell counting in tissues was automated, using computer assisted image analysis (Seescan). Data was analysed by Student's T test for paired data and Wilcoxon's test.

[2] = Skin biopsy tissue concentration, upper and lower half, HPLC (Example 2); assay type: in vivo, human; settings: 7 hours after application, 2.2% sirolimus in capric acid:isopropyl myristate:benzyl alcohol 50:40:10; for concentration at 7 h: human, skin biopsy, topical, 2.2 % sirolimus in the formulation, Subject A
Description: as §1

[3] = Skin biopsy tissue concentration, four 0.7 mm horizontal sections, acetonitrile extraction (Example 1); assay type: in vivo; settings: human, 8 % sirolimus in the formulation
Description: In parallel, skin biopsies were taken from the individuals after 7 hours, the biopsy samples were glued to a glass slide and serially sectioned horizontally into 4 layers each 0.7 mm thick and extracted with acetonitrile.

CD4 helper lymphocytes = experiment: Biopsy immunohistochemistry, CD4 helper lymphocytes; assay type: in vivo, human; settings: lesion biopsy at end of treatment; control 61/mm^3; P-0.0026 (unpaired T-test)
Description: as §2, §3, §4, §5

chronic plaque psoriasis = experiment: Double blind left-right comparison of topical sirolimus in chronic plaque psoriasis (Example 3); assay type: in vivo, human
Description: A double blind, left-right comparison of the effect of applying topical sirolimus in formulations as described in Examples 1 and 2, to 24 patients with chronic (over three months) plaque psoriasis was conducted. (22 out of the 24 patients were eventually analysed.) A single target plaque was treated for the first 6 weeks with the lower potency formulation of Example 2. After this the active treatment was increased to the higher potency formulation of Example 1 for 6 weeks unless a clear improvement on one side had already occurred.
Subjects were all aged over 18 years, were able to apply creams and had no other significant medical problems. Transaminases were not more than twice the upper limit of normal and subjects were selected to avoid those likely to have a holiday in sunlight during the 6-12 weeks of the trial.
Before the trial started, there was a two week washout period in which only bland emollients were applied to the target lesions.
Treatment was randomised and double blind. Hands were thoroughly washed between the twice daily application of the test formulations. The active formulation was applied consistently to one plaque while a control comprising only the vehicle base was applied consistently to the plaque on the opposite side. Where possible the arms or elbows were selected as target areas as cross contamination is less likely at these sites.
as §2
The lesions were also assessed at fortnightly intervals with subjective scoring on a scale of 0-8 for erythema, thickening, and scaling. […] These included pulsed A scan ultrasound measurement of lesion thickness and erythema measured with a reflectance erythema metre, both were averaged over 5 areas in each psoriatic lesion and were validated using a previous study which was performed using betamethasome as a reference.
At each visit we measured the full blood count, biochemistry, including urea, electrolytes, liver enzymes, bilirubin, calcium, magnesium, uric acid, glucose, amylase, muscle enzymes, lipids and cholesterol. […]
as §5

Sirolimus Concentration, lower skin segment ([2]; Subject B, Lower (2), roughly dermis): 0.5 µg/mg
Sirolimus Concentration, upper skin segment ([2]; Subject B, Upper (1), roughly epidermis): 1.5 µg/mg
concentration at 7 h ([2]; lower half (roughly dermis), Lower (2), roughly dermis, read-out: Sirolimus Concentration, lower skin segment): 333000 ng/g
concentration at 7 h ([2]; upper half (roughly epidermis), Upper (1), roughly epidermis, read-out: Sirolimus Concentration, upper skin segment): 0 ng/g
concentration at 7 h ([3]; section 1 (surface, 0-0.7 mm), topical, subject A, section 1 (surface, 0-0.7 mm), 7 hours after application, 8% sirolimus in capric acid:benzyl alcohol 50:50, read-out: Sirolimus concentration, skin section 1): 59000 ng/g
concentration at 7 h ([3]; section 1 (surface, 0-0.7 mm), topical, subject B, section 1 (surface, 0-0.7 mm), 7 hours after application, 8% sirolimus in capric acid:benzyl alcohol 50:50, read-out: Sirolimus concentration, skin section 1): 288000 ng/g
concentration at 7 h ([3]; section 1 (surface, 0-0.7 mm), topical, subject C, section 1 (surface, 0-0.7 mm), 7 hours after application, 8% sirolimus in capric acid:benzyl alcohol 50:50, read-out: Sirolimus concentration, skin section 1): 301000 ng/g
concentration at 7 h ([3]; section 1 (surface, 0-0.7 mm), topical, subject D, section 1 (surface, 0-0.7 mm), 7 hours after application, 8% sirolimus in capric acid:benzyl alcohol 50:50, read-out: Sirolimus concentration, skin section 1): 216000 ng/g
concentration at 7 h ([3]; section 2 (0.7-1.4 mm), topical, subject B, section 2 (0.7-1.4 mm), 7 hours after application, 8% sirolimus in capric acid:benzyl alcohol 50:50, read-out: Sirolimus concentration, skin section 2): 108000 ng/g
concentration at 7 h ([3]; section 2 (0.7-1.4 mm), topical, subject C, section 2 (0.7-1.4 mm), 7 hours after application, 8% sirolimus in capric acid:benzyl alcohol 50:50, read-out: Sirolimus concentration, skin section 2): 144000 ng/g
concentration at 7 h ([3]; section 2 (0.7-1.4 mm), topical, subject D, section 2 (0.7-1.4 mm), 7 hours after application, 8% sirolimus in capric acid:benzyl alcohol 50:50, read-out: Sirolimus concentration, skin section 2): 126000 ng/g
concentration at 7 h ([3]; section 3, topical, subject A, section 3, 7 hours after application, 8% sirolimus in capric acid:benzyl alcohol 50:50, read-out: Sirolimus concentration, skin section 3): 255000 ng/g
concentration at 7 h ([3]; section 3, topical, subject B, section 3, 7 hours after application, 8% sirolimus in capric acid:benzyl alcohol 50:50, read-out: Sirolimus concentration, skin section 3): 173000 ng/g
concentration at 7 h ([3]; section 3, topical, subject C, section 3, 7 hours after application, 8% sirolimus in capric acid:benzyl alcohol 50:50, read-out: Sirolimus concentration, skin section 3): 339000 ng/g
concentration at 7 h ([3]; section 3, topical, subject D, section 3, 7 hours after application, 8% sirolimus in capric acid:benzyl alcohol 50:50, read-out: Sirolimus concentration, skin section 3): 256000 ng/g
concentration at 7 h ([3]; section 4, topical, subject A, section 4, 7 hours after application, 8% sirolimus in capric acid:benzyl alcohol 50:50, read-out: Sirolimus concentration, skin section 4): 239000 ng/g
concentration at 7 h ([3]; section 4, topical, subject B, section 4, 7 hours after application, 8% sirolimus in capric acid:benzyl alcohol 50:50, read-out: Sirolimus concentration, skin section 4): 214000 ng/g
concentration at 7 h ([3]; section 4, topical, subject C, section 4, 7 hours after application, 8% sirolimus in capric acid:benzyl alcohol 50:50, read-out: Sirolimus concentration, skin section 4): 370000 ng/g
concentration at 7 h ([3]; section 4, topical, subject D, section 4, 7 hours after application, 8% sirolimus in capric acid:benzyl alcohol 50:50, read-out: Sirolimus concentration, skin section 4): 241000 ng/g
SMILES: CO[C@H]1C[C@@H]2CC[C@@H](C)[C@@](O)(O2)C(=O)C(=O)N2CCCC[C@H]2C(=O)O[C@H]([C@H](C)C[C@@H]2CC[C@@H](O)[C@H](OC)C2)CC(=O)[C@H](C)/C=C(\C)[C@@H](O)[C@@H](OC)C(=O)[C@H](C)C[C@H](C)/C=C/C=C/C=C/1C [sirolimus]
sirolimus levels in venous blood ([1]; 2.2% sirolimus in isopropyl myristate 40%, benzyl alcohol 10%, capric acid 50%, three individuals, MSGCMS): no significant levels of sirolimus were detected
sirolimus levels in venous blood ([1]; 8% sirolimus in capric acid:benzyl alcohol 50:50, four individuals, MSGCMS detects down to 0.1 ng/ml): no significant levels of sirolimus were detected
Ki-67 proliferating cells, mean (Ki-67): 55 /mm^3
CD4 cells, mean (CD4 helper lymphocytes): 32.7 /mm^3
contact sensitivity to the topical preparations (chronic plaque psoriasis; 22 analysed patients, one to benzyl alcohol, one to sirolimus and one to both): Three of the twenty-two patients developed contact sensitivity
Ultrasound thickness, mean (chronic plaque psoriasis; psoriatic lesion, topical twice daily, 2.2% then 8% formulation, vehicle control 2.96, NS): 2.99 mm
Erythema measurement, mean (chronic plaque psoriasis; reflectance erythema metre, topical twice daily, 2.2% then 8% formulation, vehicle control 33.1, NS): 34.5 arbitrary units
Clinical Score, mean (chronic plaque psoriasis; scale of 0-24, high values indicating a better result, final score, topical twice daily, 2.2% formulation 6 weeks then 8% formulation 6 weeks, vehicle control 9.1, p = 0.032): 11.2
